Patent US10894798B2, “Substituted dihydropyrrolopyrazole derivative” (UBE INDUSTRIES, LTD., priority 2015, dated 2021)

How the values were obtained:
PLK1 = biological target: T1, PLK1 (Homo sapiens, UniProt P53350); assay: PLK1 enzyme (polo-like kinase) inhibition test; format: biochemical; settings: [γ-33P]ATP, casein substrate; Ki=IC50/(1+S/Km); read-out: Ki value of PLK1 inhibitory activity
T1 construct: purchased Carna Biosciences, Inc. 05-157
Description: The preparation of a buffer solution was performed by mixing a 3-morpholinopropanesulfonic acid buffer solution (MOPS buffer solution) (pH 7.0), dithiothreitol (DTT), and magnesium acetate (Mg(CH3COO)2). A 1 mM [γ-^33P]ATP solution was used by diluting a 10 mM ATP solution and a commercially available [γ-^33P]ATP solution (manufactured by Perkin Elmer, Inc., Code No. NEG-302H) with the buffer solution. A PLK1 solution was used by diluting commercially available PLK1 (manufactured by Carna Biosciences, Inc., Catalog No. 05-157) with the buffer solution. A substrate solution was used by diluting casein with the buffer solution. As for the preparation of a reaction solution, the buffer solution, the 500 μM [γ-^33P]ATP solution, the PLK1 solution, and the substrate solution were mixed at 4° C. to obtain a reaction solution.
(§1) PLK1 enzyme reaction was performed by adding 5 μL of a test compound solution prepared with 10% DMSO/90% injectable distilled water, and 45 μL of the reaction solution in a 1.5 mL microtube at 4° C. and reacting in the microtube at 30° C. for 20 minutes in a water bath incubator. After the reaction, a 10% aqueous trichloroacetic acid (TCA) solution was added to each microtube while cooled to 4° C., and mixed in a vortex mixer to terminate the reaction. The resultant was left standing at 4° C. for 10 minutes and then centrifuged, and the supernatant was discarded. Next, a 2% aqueous trichloroacetic acid (TCA) solution was added thereto, mixed in a vortex mixer, and then centrifuged, and the supernatant was discarded. This washing operation was performed twice. After the washing, precipitates were dissolved in a 1 N aqueous sodium hydroxide (NaOH) solution, and the energy quantity (radioactivity) of the reaction product was measured with a liquid scintillation counter.
The calculation of the inhibitory activity of the test compound against PLK1 was performed as a test compound concentration inhibiting 50% of the amount of ^33P bound to casein (IC50 value) by using EXSUS (version 8.1.0, manufactured by CAC Exicare Corp.).
(§2) The calculation of a Ki value was performed according to the following calculation expression wherein S represents the concentration of ATP contained in the reaction solution, and Km represents a Michaelis-Menten constant: Ki=IC50/(1+S/Km)

CDK2 = biological target: T2, CDK2 (Homo sapiens, UniProt P24941); assay: CDK2 enzyme inhibition test; format: biochemical; settings: [γ-33P]ATP, MBP substrate; Ki=IC50/(1+S/Km); read-out: Ki value of CDK2 inhibitory activity
T2 construct: purchased Invitrogen Corp. PV3267
Description: (§3) The preparation of a buffer solution was performed by mixing a N-2-hydroxyethylpiperazine-N′-2-ethanesulfonic acid buffer solution (HEPES buffer solution) (pH 7.4), dithiothreitol (DTT), Triton X-100, and magnesium chloride (MgCl2). A 500 μM [γ-^33P]ATP solution was used by diluting a 10 mM ATP solution and a commercially available [γ-^33P]ATP solution (manufactured by Perkin Elmer, Inc., Code No. NEG-302H) with the buffer solution. A CDK2 solution was used by diluting commercially available CDK2 (manufactured by Invitrogen Corp., Catalog No. PV3267) with the buffer solution. A substrate solution was used by diluting myelin basic protein (MBP) with the buffer solution. As for the preparation of a reaction solution, the buffer solution, the 500 μM [γ-^33P]ATP solution, the CDK2 solution, and the substrate solution were mixed at 4° C. to obtain a reaction solution.
as §1, with “CDK2 enzyme reaction” for “PLK1 enzyme reaction”, “mixed in vortex mixer,” for “mixed in a vortex mixer,”
The calculation of the inhibitory activity of the test compound against CDK2 was performed as a test compound concentration inhibiting 50% of the amount of ^33P bound to MBP (IC50 value) by using EXSUS (version 8.1.0, manufactured by CAC Exicare Corp.).
as §2

CDK7 = biological target: T3, CDK7 (Homo sapiens, UniProt P50613); assay: CDK7 enzyme inhibition test; format: biochemical; settings: [γ-33P]ATP, MBP substrate, 60 min preincubation at 25°C; Ki=IC50/(1+S/Km); read-out: Ki value of CDK7 inhibitory activity
T3 construct: purchased Carna Biosciences, Inc. 04-108
T3 sequence (P50613 whole entry): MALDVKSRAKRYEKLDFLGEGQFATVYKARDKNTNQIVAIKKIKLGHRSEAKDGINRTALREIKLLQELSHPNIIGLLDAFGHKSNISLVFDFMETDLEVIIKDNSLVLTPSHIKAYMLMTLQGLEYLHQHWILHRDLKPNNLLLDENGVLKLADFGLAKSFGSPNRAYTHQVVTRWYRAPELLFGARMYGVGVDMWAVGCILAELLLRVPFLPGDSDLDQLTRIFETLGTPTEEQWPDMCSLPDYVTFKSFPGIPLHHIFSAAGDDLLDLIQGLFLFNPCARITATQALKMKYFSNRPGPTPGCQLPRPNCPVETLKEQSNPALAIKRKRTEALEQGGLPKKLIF
T3 sequence (P51946 whole entry partner): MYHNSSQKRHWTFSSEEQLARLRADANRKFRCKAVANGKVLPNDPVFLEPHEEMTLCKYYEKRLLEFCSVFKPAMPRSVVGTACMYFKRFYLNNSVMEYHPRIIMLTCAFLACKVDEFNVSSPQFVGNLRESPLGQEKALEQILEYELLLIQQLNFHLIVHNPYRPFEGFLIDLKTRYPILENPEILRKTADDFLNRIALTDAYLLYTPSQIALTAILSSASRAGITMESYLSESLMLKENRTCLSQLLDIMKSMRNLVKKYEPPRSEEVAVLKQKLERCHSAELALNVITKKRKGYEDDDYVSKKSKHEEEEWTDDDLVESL
T3 sequence (P51948 whole entry partner): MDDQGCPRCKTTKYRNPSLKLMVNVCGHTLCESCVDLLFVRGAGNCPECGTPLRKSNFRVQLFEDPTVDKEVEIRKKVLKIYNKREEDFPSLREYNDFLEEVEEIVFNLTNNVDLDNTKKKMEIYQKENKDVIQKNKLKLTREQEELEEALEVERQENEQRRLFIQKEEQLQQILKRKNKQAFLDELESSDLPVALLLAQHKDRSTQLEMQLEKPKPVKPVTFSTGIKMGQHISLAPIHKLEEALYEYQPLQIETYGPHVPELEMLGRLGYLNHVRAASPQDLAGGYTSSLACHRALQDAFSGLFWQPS
Description: as §3, with “PerkinElmer,” for “Perkin Elmer,”, “CDK7” for “CDK2”, “Carna Biosciences, Inc.,” for “Invitrogen Corp.,”, “04-108)” for “PV3267)”, “CDK7” for “500 μM [γ-^33P]ATP solution, the CDK2”
CDK7 enzyme reaction was performed by adding 5 μL of a test compound solution prepared with 10% DMSO/90% injectable distilled water, and 40 μL of the reaction solution to a 1.5 mL microtube at 4° C. and preincubating the microtube at 25° C. for 60 minutes in a water bath incubator. Subsequently, reaction was performed at 30° C. for 20 minutes by adding 5 μL of the 500 μM [γ-^33P]ATP solution. After the reaction, a 10% aqueous trichloroacetic acid (TCA) solution was added to each microtube while cooled to 4° C., and mixed in a vortex mixer to terminate the reaction. The resultant was left standing at 4° C. for 10 minutes and then centrifuged, and the supernatant was discarded. Next, a 2% aqueous trichloroacetic acid (TCA) solution was added thereto, mixed in a vortex mixer, and then centrifuged, and the supernatant was discarded. This washing operation was performed twice. After the washing, precipitates were dissolved in a 1 N aqueous sodium hydroxide (NaOH) solution, and the energy quantity (radioactivity) of the reaction product was measured with a liquid scintillation counter.
The calculation of the inhibitory activity of the test compound against CDK7 was performed as a test compound concentration inhibiting 50% of the amount of ^33P bound to MBP (IC50 value) by using EXSUS (version 8.1.0, manufactured by CAC Exicare Corp.).
as §2

[1] = tested on: human large intestine cancer cell line (HCT-116); assay: Human large intestine cancer (HCT-116) cell growth inhibition test; format: cell-based; settings: HCT-116, 72 h, culture for 3 days, sulforhodamine B, read-out: GI50 value, HCT-116 cell growth inhibition
Description: The measurement of a human large intestine cancer cell growth inhibitory effect was carried out by modifying the method of Simak et al. (Cancer Research, 69, 6208 (2009)).
A human large intestine cancer cell line (HCT-116, obtained from DS Pharma Biomedical Co., Ltd.) was cultured in a McCoy's 5A medium (manufactured by Thermo Fisher Scientific, Inc.) containing 10% fetal bovine serum (FBS) (manufactured by Thermo Fisher Scientific, Inc.) and 1% penicillin/streptomycin/amphotericin B (manufactured by Thermo Fisher Scientific, Inc.) and inoculated at 0.5 to 2.0×10^3 cells/well in a 96-well plate. After overnight culture in a carbon dioxide incubator, the medium was replaced with a fresh medium on the next day, and a test compound dissolved in DMSO (final DMSO concentration: 0.1%) was added thereto and left standing in a carbon dioxide incubator. After culture for 3 days, the absorbance thereof was measured by using In Vitro Toxicology Assay Kit Sulforhodamine B based (manufactured by Sigma-Aldrich Co. LLC.).
The rate of inhibition of cell growth at each concentration was calculated from the test compound concentration and the absorbance of sulforhodamine B, and the concentration of the test compound necessary for inhibiting 50% of cell growth (GI50 value) was calculated by using EXSUS (version 8.1.0, manufactured by CAC Exicare Corp.).

T1 sequence (P53350 whole entry): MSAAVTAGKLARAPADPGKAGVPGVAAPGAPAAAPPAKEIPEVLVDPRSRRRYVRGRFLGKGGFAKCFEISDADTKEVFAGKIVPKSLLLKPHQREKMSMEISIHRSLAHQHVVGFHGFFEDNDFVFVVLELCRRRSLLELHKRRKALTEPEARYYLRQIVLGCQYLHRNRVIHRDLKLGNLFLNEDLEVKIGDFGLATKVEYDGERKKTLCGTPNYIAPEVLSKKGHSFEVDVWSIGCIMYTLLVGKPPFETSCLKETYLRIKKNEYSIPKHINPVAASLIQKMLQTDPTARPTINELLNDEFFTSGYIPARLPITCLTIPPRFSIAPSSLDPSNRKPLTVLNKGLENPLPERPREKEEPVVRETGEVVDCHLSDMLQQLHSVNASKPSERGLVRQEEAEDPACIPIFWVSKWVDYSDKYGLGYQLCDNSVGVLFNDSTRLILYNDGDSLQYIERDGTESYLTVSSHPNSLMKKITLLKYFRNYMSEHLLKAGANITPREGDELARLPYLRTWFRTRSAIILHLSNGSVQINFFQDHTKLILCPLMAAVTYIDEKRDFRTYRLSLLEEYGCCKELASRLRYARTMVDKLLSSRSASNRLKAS

| Ki (PLK1) | Ki (CDK2) | Ki (CDK7) | GI50 [1] | Structure (SMILES) |
| --- | --- | --- | --- | --- |
| ≥ 5 µM | ≥ 1000 nM | ≤ 50 nM | ≤ 100 nM | CCc1cccc(F)c1NC(=O)N1Cc2c(NC(=O)C(C)(C)[Si](C)(C)C)n[nH]c2C1(C)C [II-137, N-(2-Ethyl-6-fluorophenyl)-6,6-dimethyl-3-[2-methyl-2-(trimethylsilyl)propanamido]-4,6-dihydropyrrolo[3,4-c]pyrazole-5(1H)-carboxamide] |
| ≥ 5 µM | ≥ 1000 nM | ≤ 50 nM | ≤ 100 nM | CC1(C)c2[nH]nc(NC(=O)C(C)(C)[Si](C)(C)C)c2CN1C(=O)Nc1c(F)cccc1OC(F)F [II-169, N-[2-(Difluoromethoxy)-6-fluorophenyl]-6,6-dimethyl-3-[2-methyl-2-(trimethylsilyl)propanamido]-4,6-dihydropyrrolo[3,4-c]pyrazole-5(1H)-carboxamide] |
| ≥ 5 µM | ≥ 1000 nM | ≤ 50 nM | ≤ 100 nM | CC1(C)c2[nH]nc(NC(=O)C(C)(C)[Si](C)(C)C)c2CN1C(=O)Nc1c(F)ccc2ccoc12 [II-1049, N-(6-Fluorobenzofuran-7-yl)-6,6-dimethyl-3-[2-methyl-2-(trimethylsilyl)propanamido]-4,6-dihydropyrrolo[3,4-c]pyrazole-5(1H)-carboxamide] |
| ≥ 5 µM | ≥ 1000 nM | ≤ 50 nM | ≤ 100 nM | CCc1cccc(F)c1NC(=O)N1Cc2c(NC(=O)C3([Si](C)(C)C)CC3)n[nH]c2C1(C)C [III-137, N-(2-Ethyl-6-fluorophenyl)-6,6-dimethyl-3-[1-(trimethylsilyl)cyclopropanecarboxamido]-4,6-dihydropyrrolo[3,4-c]pyrazole-5 (1H)-carboxamide] |
| ≥ 5 µM | ≥ 1000 nM | ≤ 50 nM | ≤ 100 nM | CC1(C)c2[nH]nc(NC(=O)C3([Si](C)(C)C)CC3)c2CN1C(=O)Nc1c(F)cccc1OC(F)F [III-169, N-[2-(Difluoromethoxy)-6-fluorophenyl]-6,6-dimethyl-3-[1-(trimethylsilyl)cyclopropanecarboxamido]-4,6-dihydropyrrolo[3,4-c]pyrazole-5(1H)-carboxamide] |
| ≥ 5 µM | ≥ 1000 nM | ≤ 50 nM | ≤ 100 nM | CC1(C)c2[nH]nc(NC(=O)C3([Si](C)(C)C)CC3)c2CN1C(=O)Nc1c(Cl)cccc1Cl [III-199, N-(2,6-Dichlorophenyl)-6,6-dimethyl-3-[1-(trimethylsilyl)cyclopropanecarboxamido]-4,6-dihydropyrrolo[3,4-c]pyrazole-5(1H)-carboxamide] |
| ≥ 5 µM | ≥ 1000 nM | ≤ 50 nM | ≤ 100 nM | CC1(C)c2[nH]nc(NC(=O)C3([Si](C)(C)C)CC3)c2CN1C(=O)Nc1c(F)ccc2ccoc12 [III-1049, N-(6-Fluorobenzofuran-7-yl)-6,6-dimethyl-3-[1-(trimethylsilyl)cyclopropanecarboxamido]-4,6-dihydropyrrolo[3,4-c]pyrazole-5 (1H)-carboxamide] |
| ≥ 5 µM | ≥ 1000 nM | ≤ 50 nM | ≤ 100 nM | CCc1ccccc1NC(=O)N1Cc2c(NC(=O)C3([Si](C)(C)C)CCC3)n[nH]c2C1(C)C [IV-27, N-(2-Ethylphenyl)-6,6-dimethyl-3-[1-(trimethylsilyl)cyclobutanecarboxamido]-4,6-dihydropyrrolo[3,4-c]pyrazole-5(1H)-carboxamide] |
| ≥ 5 µM | ≥ 1000 nM | ≤ 50 nM | ≤ 100 nM | CC1(C)c2[nH]nc(NC(=O)C3([Si](C)(C)C)CCC3)c2CN1C(=O)Nc1ccccc1C1CC1 [IV-39, N-(2-Cyclopropylphenyl)-6,6-dimethyl-3-[1-(trimethylsilyl)cyclobutanecarboxamido]-4,6-dihydropyrrolo[3,4-c]pyrazole-5(1H)-carboxamide] |

| Structure (SMILES) | Ki (PLK1) | Ki (CDK2) | Ki (CDK7) | GI50 [1] |
| --- | --- | --- | --- | --- |
| CC1(C)c2[nH]nc(NC(=O)C(C)(C)[Si](C)(C)C)c2CN1C(=O)Nc1c(Cl)cccc1Cl [II-199, N-(2,6-Dichlorophenyl)-6,6-dimethyl-3-[2-methyl-2-(trimethylsilyl)propanamido]-4,6-dihydropyrrolo[3,4-c]pyrazole-5(1H)-carboxamide] | ≥ 5 µM | ≥ 1000 nM | ≤ 50 nM | ≤ 100 nM |
